Columns and labels:
Assay type in all cases: in vivo
[1] = tested on: Oryza sativa (ORYSA); conditions: crop plant compatibility, 80 g/ha, effect in comparison to untreated controls
In short: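 Effects were read visually as % versus untreated controls (0% = no effect, 100% = death) about 3 weeks post-treatment. Application was a post-emergence spray at the one-leaf stage of WP/EC formulations with 0.5% additive at 600 l/ha. Different dosages are denoted a, b and c.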

[2] = tested on: Echinochloa crus-galli (ECHCG); test: Pre-emergence herbicidal action against ECHCG
In short: (§1)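 Pre-emergence soil-surface spray, WP/EC formulation, 0.5% additive, 600 l/ha water, rates of 320 g/ha or lower. Greenhouse, ~3 wk. Visual score, % of untreated control (100% = plants dead, 0% = like control).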

[3] = tested on: Matricaria inodora (MATIN); test: Pre-emergence herbicidal action against MATIN
In short: as §1

[4] = tested on: Alopecurus myosuroides (ALOMY); test: Pre-emergence herbicidal action against ALOMY; conditions: scored visually after about 3 weeks, 100% = plants have died
In short: as §1

[5] = tested on: Abutilon theophrasti (ABUTH); test: Post-emergence herbicidal action against ABUTH; conditions: 320 g/ha, visual rating about 3 weeks after treatment vs untreated controls (100% = plants have died, 0% = like control plants)
In short: (§2)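 Greenhouse plants sprayed at the one-leaf stage, 2–3 weeks after sowing, with WP or EC formulations plus 0.5% additive at 600 l/ha water. Activity rated visually after about 3 weeks versus untreated controls (100% = dead, 0% = like control), at 320 g/ha or lower.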

[6] = tested on: Lolium rigidum (LOLRI); test: Pre-emergence herbicidal action against LOLRI
In short: as §1

[7] = tested on: Pharbitis purpurea (PHBPU); test: Post-emergence herbicidal action against PHBPU
In short: as §2

[8] = tested on: Avena fatua (AVEFA); test: Pre-emergence herbicidal action against AVEFA; conditions: visual scoring after about 3 weeks vs untreated controls
In short: as §1

[9] = tested on: Amaranthus retroflexus (AMARE); test: Pre-emergence herbicidal action against AMARE; conditions: visual scoring after about 3 weeks vs untreated controls
In short: as §1

[10] = tested on: Matricaria inodora (MATIN); test: Post-emergence herbicidal action against MATIN
In short: as §2

[11] = tested on: Setaria viridis (SETVI); test: Post-emergence herbicidal action against SETVI
In short: as §2

[12] = tested on: Viola tricolor (VIOTR); test: Pre-emergence herbicidal action against VIOTR
In short: as §1

[13] = tested on: Echinochloa crus-galli (ECHCG); test: Post-emergence herbicidal action against ECHCG
In short: as §2

[14] = tested on: Pharbitis purpurea (PHBPU); test: Pre-emergence herbicidal action against PHBPU
In short: as §1

[15] = tested on: Digitaria sanguinalis (DIGSA); test: Post-emergence herbicidal action against DIGSA; conditions: 320 g/ha, visual rating about 3 weeks after treatment
In short: as §2

[16] = tested on: Digitaria sanguinalis (DIGSA); test: Pre-emergence herbicidal action against DIGSA
In short: as §1

[17] = tested on: Polygonum convolvulus (POLCO); test: Pre-emergence herbicidal action against POLCO
In short: as §1

[18] = tested on: Verconica persica (VERPE); test: Pre-emergence herbicidal action against VERPE
In short: as §1

[19] = tested on: Lolium rigidum (LOLRI); test: Post-emergence herbicidal action against LOLRI
In short: as §2

[20] = tested on: Setaria viridis (SETVI); test: Pre-emergence herbicidal action against SETVI
In short: as §1

[21] = tested on: Abutilon theophrasti (ABUTH); test: Pre-emergence herbicidal action against ABUTH; conditions: 100% = plants have died
In short: as §1

[22] = tested on: Viola tricolor (VIOTR); test: Post-emergence herbicidal action against VIOTR
In short: as §2

[23] = tested on: Alopecurus myosuroides (ALOMY); test: Post-emergence herbicidal action against ALOMY; conditions: visual rating about 3 weeks after treatment vs untreated controls (100% = plants have died, 0% = like control plants)
In short: as §2

[24] = tested on: Polygonum convolvulus (POLCO); test: Post-emergence herbicidal action against POLCO
In short: as §2

[25] = tested on: Verconica persica (VERPE); test: Post-emergence herbicidal action against VERPE
In short: as §2

[26] = tested on: Avena fatua (AVEFA); test: Post-emergence herbicidal action against AVEFA; conditions: visual rating about 3 weeks after treatment
In short: as §2

[27] = tested on: Amaranthus retroflexus (AMARE); test: Post-emergence herbicidal action against AMARE
In short: as §2

[28] = 80 g/ha, visual scoring after about 3 weeks vs untreated controls
[29] = Dosage column 320 g/ha (title prints 3200 g/ha), scored visually after about 3 weeks

Structure (SMILES): C[C@@H](Oc1nn(-c2nc(F)ccc2F)c(-c2cncc(F)c2)c1Cl)C(=O)O [Example I-159]
- Post-emergence action against ORYSA in % [1]: 10%
- Pre-emergence action against ECHCG in % ([2]; dosage 80 g/ha): 90%
- Pre-emergence action against ECHCG in % ([2]; dosage 320 g/ha): 90%
- Pre-emergence action against MATIN in % ([3]; dosage 80 g/ha): 90%
- Pre-emergence action against MATIN in % ([3]; dosage 320 g/ha): 90%
- Pre-emergence action against ALOMY ([4]; 80 g/ha): 80%
- Pre-emergence action against ALOMY ([4]; 320 g/ha): 90%
- Post-emergence action against ABUTH in % [5]: 80%
- Pre-emergence action against LOLRI in % ([6]; dosage 80 g/ha): 90%
- Pre-emergence action against LOLRI in % ([6]; dosage 320 g/ha): 100%
- Post-emergence action against PHBPU in % ([7]; dosage 80 g/ha): 80%
- Post-emergence action against PHBPU in % ([7]; dosage 320 g/ha): 80%
- Pre-emergence action against AVEFA in % ([8]; 320 g/ha): 90%
- Pre-emergence action against AMARE in % ([9]; 80 g/ha): 90%
- Pre-emergence action against AMARE in % ([9]; 320 g/ha): 100%
- Post-emergence action against MATIN in % ([10]; dosage 320 g/ha): 80%
- Post-emergence action against SETVI in % ([11]; dosage 320 g/ha): 80%
- Pre-emergence action against VIOTR in % ([12]; 320 g/ha, Viola tricolor): 100%
- Pre-emergence action against VIOTR in % ([12]; dosage 80 g/ha): 100%
- Post-emergence action against ECHCG in % ([13]; dosage 80 g/ha): 80%
- Post-emergence action against ECHCG in % ([13]; dosage 320 g/ha): 90%
- Pre-emergence action against PHBPU in % ([14]; dosage 80 g/ha): 80%
- Pre-emergence action against PHBPU in % ([14]; dosage 320 g/ha): 90%
- Post-emergence action against DIGSA in % [15]: 80%
- Pre-emergence action against DIGSA in % [16, 28]: 90%
- Pre-emergence action against DIGSA in % ([16]; dosage 320 g/ha): 100%
- Pre-emergence action against POLCO in % ([17]; dosage 80 g/ha): 90%
- Pre-emergence action against POLCO in % ([17]; dosage 320 g/ha): 90%
- Pre-emergence action against VERPE in % ([18]; dosage 320 g/ha): 100%
- Post-emergence action against LOLRI in % ([19]; dosage 320 g/ha): 80%
- Pre-emergence action against SETVI in % ([20]; dosage 80 g/ha): 90%
- Pre-emergence action against SETVI in % ([20]; dosage 320 g/ha): 100%
- Pre-emergence action against ABUTH ([21]; 80 g/ha, scored visually after about 3 weeks vs untreated controls, 0% = like control plants): 80%
- Pre-emergence action against ABUTH [21, 29]: 80%
- Post-emergence action against VIOTR in % ([22]; 320 g/ha): 80%

Structure (SMILES): COC(=O)[C@@H](C)Oc1nn(-c2nc(F)ccc2F)c(-c2cncc(F)c2)c1C1CC1 [Example I-171]
- Pre-emergence action against ECHCG in % ([2]; dosage 80 g/ha): 100%
- Pre-emergence action against ECHCG in % ([2]; dosage 320 g/ha): 100%
- Pre-emergence action against MATIN in % ([3]; dosage 80 g/ha): 90%
- Pre-emergence action against MATIN in % ([3]; dosage 320 g/ha): 90%
- Pre-emergence action against ALOMY ([4]; 80 g/ha): 100%
- Pre-emergence action against ALOMY ([4]; 320 g/ha): 100%
- Post-emergence action against ABUTH in % [5]: 90%
- Pre-emergence action against LOLRI in % ([6]; dosage 80 g/ha): 100%
- Pre-emergence action against LOLRI in % ([6]; dosage 320 g/ha): 100%
- Post-emergence action against PHBPU in % ([7]; dosage 80 g/ha): 80%
- Post-emergence action against PHBPU in % ([7]; dosage 320 g/ha): 90%
- Post-emergence action against ALOMY in % ([23]; 80 g/ha): 90%
- Post-emergence action against ALOMY in % ([23]; 320 g/ha): 90%
- Pre-emergence action against AVEFA in % ([8]; 80 g/ha): 90%
- Pre-emergence action against AVEFA in % ([8]; 320 g/ha): 100%
- Pre-emergence action against AMARE in % ([9]; 80 g/ha): 100%
- Pre-emergence action against AMARE in % ([9]; 320 g/ha): 100%
- Post-emergence action against POLCO in % ([24]; dosage 80 g/ha): 80%
- Post-emergence action against POLCO in % ([24]; dosage 320 g/ha): 90%
- Post-emergence action against VERPE in % ([25]; 320 g/ha, VERPE): 90%
- Post-emergence action against VERPE in % ([25]; dosage 80 g/ha): 80%
- Post-emergence action against MATIN in % ([10]; dosage 80 g/ha): 80%
- Post-emergence action against MATIN in % ([10]; dosage 320 g/ha): 90%
- Post-emergence action against SETVI in % ([11]; dosage 80 g/ha): 90%
- Post-emergence action against SETVI in % ([11]; dosage 320 g/ha): 90%
- Post-emergence action against AVEFA in % ([26]; 80 g/ha): 90%
- Post-emergence action against AVEFA in % ([26]; 320 g/ha): 90%
- Pre-emergence action against VIOTR in % ([12]; 320 g/ha, Viola tricolor): 100%
- Pre-emergence action against VIOTR in % ([12]; dosage 80 g/ha): 100%
- Post-emergence action against ECHCG in % ([13]; dosage 80 g/ha): 80%
- Post-emergence action against ECHCG in % ([13]; dosage 320 g/ha): 80%
- Pre-emergence action against PHBPU in % ([14]; dosage 80 g/ha): 80%
- Pre-emergence action against PHBPU in % ([14]; dosage 320 g/ha): 90%
- Post-emergence action against DIGSA in % [15]: 80%
- Pre-emergence action against DIGSA in % [16, 28]: 80%
- Pre-emergence action against DIGSA in % ([16]; dosage 320 g/ha): 100%
- Pre-emergence action against POLCO in % ([17]; dosage 80 g/ha): 90%
- Pre-emergence action against POLCO in % ([17]; dosage 320 g/ha): 90%
- Pre-emergence action against VERPE in % ([18]; dosage 80 g/ha): 100%
- Pre-emergence action against VERPE in % ([18]; dosage 320 g/ha): 100%
- Post-emergence action against LOLRI in % ([19]; dosage 80 g/ha): 80%
- Post-emergence action against LOLRI in % ([19]; dosage 320 g/ha): 90%
- Pre-emergence action against SETVI in % ([20]; dosage 80 g/ha): 100%
- Pre-emergence action against SETVI in % ([20]; dosage 320 g/ha): 100%
- Pre-emergence action against ABUTH [21, 29]: 90%
- Post-emergence action against VIOTR in % ([22]; 80 g/ha): 90%
- Post-emergence action against VIOTR in % ([22]; 320 g/ha): 90%
- Post-emergence action against AMARE in % ([27]; 80 g/ha, visual rating about 3 weeks after treatment vs untreated controls (100% = plants have died, 0% = like control plants)): 80%
- Post-emergence action against AMARE in % ([27]; 320 g/ha, visual rating about 3 weeks after treatment): 80%

— US20240041042A1, “1-(PYRIDYL)-5-AZINYLPYRAZOLE DERIVATIVES, AND THEIR USE FOR CONTROL OF UNDESIRED PLANT GROWTH” (Bayer Aktiengesellschaft, priority 2020, published 2024)
